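Cells were grown in 96-well plates and exposed to each compound for 48 hours at five concentrations; endpoints were interpolated linearly between bracketing concentrations, or set to the highest concentration if not reached. Here, GI50 denotes the concentration required for 50% inhibition of growth.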 Activity calls are given as the source filed them. No stated cut-off is given here; in the data, active = GI50 up to about 1.1 µM and inactive = higher.
Legend:
Assay in all cases: inhibition of tumour cell growth, NCI panel, 48 h
[1] = tested on: 786-0
[2] = tested on: A549
[3] = tested on: ACHN
[4] = tested on: BT-549
[5] = tested on: CAKI-1
[6] = tested on: CCRF-CEM
[7] = tested on: COLO 205
[8] = tested on: DU-145
[9] = tested on: EKVX
[10] = tested on: HCC 2998
[11] = tested on: HCT-116
[12] = tested on: HL-60
[13] = tested on: HOP-62
[14] = tested on: HOP-92
[15] = tested on: Hs-578T
[16] = tested on: IGROV-1
[17] = tested on: K562
[18] = tested on: KM12
[19] = tested on: LOX IMVI
[20] = tested on: M14
[21] = tested on: MCF7
[22] = tested on: MDA-MB-231
[23] = tested on: MDA-MB-435
[24] = tested on: MDA-N
[25] = tested on: MOLT-4
[26] = tested on: Malme-3M
[27] = tested on: NCI-H226
[28] = tested on: NCI-H23
[29] = tested on: NCI-H460
[30] = tested on: NCI-H522
[31] = tested on: NCI/ADR-RES
[32] = tested on: OVCAR-3
[33] = tested on: OVCAR-4
[34] = tested on: PC-3
[35] = tested on: RPMI-8226
[36] = tested on: RXF 393
[37] = tested on: SF-268
[38] = tested on: SF-295
[39] = tested on: SF-539
[40] = tested on: SK-MEL-28
[41] = tested on: SK-MEL-2
[42] = tested on: SK-MEL-5
[43] = tested on: SK-OV-3
[44] = tested on: SN12C
[45] = tested on: SNB-19
[46] = tested on: SR
[47] = tested on: SW-620
[48] = tested on: T47D
[49] = tested on: TK-10
[50] = tested on: U-251
[51] = tested on: UACC-257
[52] = tested on: UACC-62
[53] = tested on: UO-31
[54] = tested on: HCT-15
[55] = tested on: HT-29
[56] = tested on: OVCAR-5
[57] = tested on: OVCAR-8
[58] = tested on: SNB-75

CCCCOCCOCCOC1=CC(=O)c2c(O)ccc(O)c2C1=O
GI50 [1]: 1.6 µM (inactive)
GI50 [2]: 1.8 µM (inactive)
GI50 [3]: 1.66 µM (inactive)
GI50 [4]: 1.77 µM (inactive)
GI50 [5]: 1.95 µM (inactive)
GI50 [6]: 2.14 µM (inactive)
GI50 [7]: 1.4 µM (inactive)
GI50 [8]: 1.7 µM (inactive)
GI50 [9]: 5.19 µM (inactive)
GI50 [10]: 1.82 µM (inactive)
GI50 [11]: 1.76 µM (inactive)
GI50 [12]: 2.27 µM (inactive)
GI50 [13]: 1.79 µM (inactive)
GI50 [14]: 2.9 µM (inactive)
GI50 [15]: 2.55 µM (inactive)
GI50 [16]: 1.89 µM (inactive)
GI50 [17]: 2.5 µM (inactive)
GI50 [18]: 1.83 µM (inactive)
GI50 [19]: 1.86 µM (inactive)
GI50 [20]: 1.51 µM (inactive)
GI50 [21]: 1.75 µM (inactive)
GI50 [22]: 1.73 µM (inactive)
GI50 [23]: 0.188 µM (active)
GI50 [24]: 0.167 µM (active)
GI50 [25]: 2.65 µM (inactive)
GI50 [26]: 0.4 µM (active)
GI50 [27]: 2.01 µM (inactive)
GI50 [28]: 1.82 µM (inactive)
GI50 [29]: 1.95 µM (inactive)
GI50 [30]: 1.63 µM (inactive)
GI50 [31]: 2.14 µM (inactive)
GI50 [32]: 1.61 µM (inactive)
GI50 [33]: 1.94 µM (inactive)
GI50 [34]: 3 µM (inactive)
GI50 [35]: 2.4 µM (inactive)
GI50 [36]: 1.94 µM (inactive)
GI50 [37]: 4.26 µM (inactive)
GI50 [38]: 1.68 µM (inactive)
GI50 [39]: 2.03 µM (inactive)
GI50 [40]: 1.53 µM (inactive)
GI50 [41]: 1.9 µM (inactive)
GI50 [42]: 1.05 µM (active)
GI50 [43]: > 10 µM (inactive)
GI50 [44]: 1.82 µM (inactive)
GI50 [45]: 1.79 µM (inactive)
GI50 [46]: 2.7 µM (inactive)
GI50 [47]: 1.57 µM (inactive)
GI50 [48]: 2.65 µM (inactive)
GI50 [49]: 3.05 µM (inactive)
GI50 [50]: 1.85 µM (inactive)
GI50 [51]: 1.58 µM (inactive)
GI50 [52]: 1.82 µM (inactive)
GI50 [53]: 1.58 µM (inactive)

O=C1CC(n2ccnc2)c2c(Cl)sc(Cl)c21 (centres undefined)
GI50 [1]: 6.79 µM (inactive)
GI50 [2]: 24.5 µM (inactive)
GI50 [3]: 18.1 µM (inactive)
GI50 [4]: 15.3 µM (inactive)
GI50 [5]: 19.5 µM (inactive)
GI50 [6]: 4.78 µM (inactive)
GI50 [7]: 18.2 µM (inactive)
GI50 [8]: 16.1 µM (inactive)
GI50 [9]: 19.2 µM (inactive)
GI50 [11]: 14.2 µM (inactive)
GI50 [54]: 14.2 µM
GI50 [12]: 51.8 µM (inactive)
GI50 [13]: 18.7 µM (inactive)
GI50 [55]: 19.8 µM (inactive)
GI50 [15]: 30.4 µM (inactive)
GI50 [16]: 12.7 µM (inactive)
GI50 [17]: 7.89 µM (inactive)
GI50 [18]: 15.6 µM (inactive)
GI50 [19]: 6.3 µM (inactive)
GI50 [20]: 15.3 µM (inactive)
GI50 [21]: 4.94 µM (inactive)
GI50 [22]: 18.9 µM (inactive)
GI50 [23]: 17.1 µM (inactive)
GI50 [24]: 16.2 µM (inactive)
GI50 [25]: 3.86 µM (inactive)
GI50 [26]: 17.4 µM (inactive)
GI50 [27]: 31.6 µM (inactive)
GI50 [28]: 14.9 µM (inactive)
GI50 [29]: 26 µM (inactive)
GI50 [30]: 6.31 µM (inactive)
GI50 [31]: 23.8 µM (inactive)
GI50 [32]: 15.4 µM (inactive)
GI50 [33]: 19.5 µM (inactive)
GI50 [56]: 22.5 µM (inactive)
GI50 [57]: 13.1 µM (inactive)
GI50 [34]: 15.7 µM (inactive)
GI50 [35]: 2.28 µM (inactive)
GI50 [36]: 16.4 µM (inactive)
GI50 [37]: 21.9 µM (inactive)
GI50 [38]: 27.4 µM (inactive)
GI50 [39]: 17.2 µM (inactive)
GI50 [40]: 23.7 µM (inactive)
GI50 [41]: 21.4 µM (inactive)
GI50 [42]: 18.4 µM (inactive)
GI50 [43]: 23.1 µM (inactive)
GI50 [44]: 17.7 µM (inactive)
GI50 [45]: 20.3 µM (inactive)
GI50 [58]: 20.6 µM (inactive)
GI50 [46]: 2.92 µM (inactive)
GI50 [47]: 11 µM (inactive)
GI50 [48]: 21.9 µM (inactive)
GI50 [49]: 20.2 µM (inactive)
GI50 [50]: 17.7 µM (inactive)
GI50 [51]: 15.5 µM (inactive)
GI50 [52]: 15.5 µM (inactive)
GI50 [53]: 14 µM (inactive)
